Laboratory results published in US11071731B2, “Allosteric modulators of the mu opioid receptor” (Chiromics, LLC, priority 2017, dated 2021).

Tests used:
[1] = molecular target: T1, mu opioid receptor (MOR) (Homo sapiens, UniProt P35372); assay: PathHunter β-arrestin recruitment assay, PAM mode with EC20 endomorphin-1; type: cell-based; conditions: for EC50: read-out: β-arr. EC50
In short: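 Enzyme fragment complementation read-out: β-gal ED fragment fused to receptor, EA fused to β-arrestin, recruitment restoring β-gal activity detected by chemiluminescence. EC50 and percent maximal response derived for each compound.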

[2] = molecular target: T1, mu opioid receptor (MOR); assay: Hit Hunter cAMP signaling assay (adenylyl cyclase inhibition), PAM mode with EC20 endomorphin-1; type: cell-based
[3] = maximal response for β-arrestin recruitment
[4] = adenylyl cyclase inhibition, read-out: cAMP EC50
[5] = maximal response for adenylyl cyclase inhibition
[6] = maximal response, β-arrestin recruitment
[7] = cAMP EC50, adenylyl cyclase inhibition
[8] = maximal response, adenylyl cyclase inhibition

T1 sequence (P35372 whole entry, the tested form may be a part): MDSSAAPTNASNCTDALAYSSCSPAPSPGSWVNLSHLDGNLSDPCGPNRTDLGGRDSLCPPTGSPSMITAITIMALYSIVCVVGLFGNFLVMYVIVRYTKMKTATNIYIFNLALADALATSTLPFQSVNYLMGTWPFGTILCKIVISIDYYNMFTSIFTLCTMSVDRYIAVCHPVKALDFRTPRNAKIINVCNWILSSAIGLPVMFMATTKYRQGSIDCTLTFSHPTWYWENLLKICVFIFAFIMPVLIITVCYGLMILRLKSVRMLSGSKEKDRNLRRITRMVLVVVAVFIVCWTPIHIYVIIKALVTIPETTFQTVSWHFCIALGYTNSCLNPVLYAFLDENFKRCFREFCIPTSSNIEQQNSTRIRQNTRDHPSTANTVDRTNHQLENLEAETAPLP

SMILES | β-arr Max. Resp. [1, 3] | EC50 ([1]; β-arrestin recruitment) | EC50 [2, 4] | cAMP Max. Resp. [2, 5] | β-arr Max. Resp. [1, 6] | EC50 [2, 7] | cAMP Max. Resp. [2, 8] | EC50 ([2]; read-out: cAMP EC50, adenylyl cyclase inhibition)
CS(=O)(=O)N1CCN(c2nc(Cl)ncc2F)C(c2cc(F)cc(C(F)(F)F)c2)C1 (racemic) [Compound 309] | E (E represents a maximal response of 40-60%) | > 2100 nM | > 2100 nM | D (D represents a maximal response of < 40%) | – | – | – | –
Fc1ccc(C2CCCCN2c2ccnc(Cl)n2)cc1Cl (stereo not shown) [compound 470] | – | > 2100 nM | – | – | F (F represents a maximal response of > 60%) | > 2100 nM | E (E represents a maximal response of 40-60%) | –
Fc1ccc(C2COCCN2Cc2cc(Cl)ccc2F)cc1Cl (racemic) [Compound 194] | F (F represents a maximal response of > 60%) | 700 to 2100 nM | 700 to 2100 nM | D (D represents a maximal response of < 40%) | – | – | – | –
Fc1cccc(C2CCCCN2c2nc(Cl)ccc2F)n1 (stereo not shown) [compound 264] | E (E represents a maximal response of 40-60%) | > 2100 nM | – | F (F represents a maximal response of > 60%) | – | 700 to 2100 nM | – | –
Fc1cnc(Cl)nc1N1CCC(F)(F)CC1c1cccc(C(F)(F)F)c1 (stereo not shown) [compound 199] | F (F represents a maximal response of > 60%) | < 700 nM | – | E (E represents a maximal response of 40-60%) | – | 700 to 2100 nM | – | –
O=S(=O)(c1cc(F)ccc1F)N1CCCCC1c1cccc(C(F)(F)F)c1 (stereo not shown) [Compound 26] | F (F represents a maximal response of > 60%) | > 2100 nM | > 2100 nM | D (D represents a maximal response of < 40%) | – | – | – | –
O=S(=O)(c1ccc(Cl)cc1)N1CCCCC1c1ccc(OC(F)(F)F)c(Br)c1 (stereo not shown) [compound 43] | F (F represents a maximal response of > 60%) | 700 to 2100 nM | > 2100 nM | D (D represents a maximal response of < 40%) | – | – | – | –
COc1cnc(Cl)nc1N1CCCCC1c1cccc(C(F)(F)F)c1 (stereo not shown) [compound 361] | D (D represents a maximal response of < 40%) | < 700 nM | – | D (D represents a maximal response of < 40%) | – | < 700 nM | – | –
Cc1cnc(N2CCCCC2c2cccc(C(F)(F)F)c2)nc1Cl (stereo not shown) [compound 266] | E (E represents a maximal response of 40-60%) | > 2100 nM | – | D (D represents a maximal response of < 40%) | – | > 2100 nM | – | –
O=S(=O)(c1ccc(Cl)cc1)N1CCCCC1c1ccc(Cl)c(C(F)(F)F)c1 (racemic) [compound 64] | F (F represents a maximal response of > 60%) | 700 to 2100 nM | 700 to 2100 nM | D (D represents a maximal response of < 40%) | – | – | – | –
COc1cccc(N2CCCCC2c2cccc(C(F)(F)F)n2)c1 (stereo not shown) [compound 455] | – | > 2100 nM | > 2100 nM | – | E (E represents a maximal response of 40-60%) | – | D (D represents a maximal response of < 40%) | –
Fc1cnc(Cl)nc1N1CCCCC1c1cc(C(F)(F)F)c2[nH]cnc2c1 (stereo not shown) [compound 417] | D (D represents a maximal response of < 40%) | < 700 nM | – | D (D represents a maximal response of < 40%) | – | < 700 nM | – | –
N#Cc1cc(C2CCCCN2S(=O)(=O)c2ccc(Cl)cc2)ccn1 (racemic) [compound 80] | E (E represents a maximal response of 40-60%) | > 2100 nM | > 2100 nM | D (D represents a maximal response of < 40%) | – | – | – | –
Fc1cnc(Cl)nc1N1CCCCC1c1cnc2cnccn12 (stereo not shown) [compound 338] | D (D represents a maximal response of < 40%) | < 700 nM | – | D (D represents a maximal response of < 40%) | – | < 700 nM | – | –
COc1ccc(C2C(F)CCCN2c2nc(Cl)ncc2F)cc1Br (stereo not shown) [compound 213] | F (F represents a maximal response of > 60%) | > 2100 nM | – | D (D represents a maximal response of < 40%) | – | – | – | > 2100 nM
Fc1cnc(Cl)nc1N1CCCCC1c1ccc2ncsc2c1 (stereo not shown) [compound 341] | D (D represents a maximal response of < 40%) | < 700 nM | – | D (D represents a maximal response of < 40%) | – | < 700 nM | – | –
CC1CCN(S(=O)(=O)c2ccc(Cl)cc2)C1c1ccc(Br)c(F)c1 (mixture of isomers) [Compound 92] | F (F represents a maximal response of > 60%) | 700 to 2100 nM | > 2100 nM | D (D represents a maximal response of < 40%) | – | – | – | –
O=S(=O)(c1ccc(Cl)cc1)N1CCCCC1c1ccc(F)nc1 (racemic) [compound 53] | F (F represents a maximal response of > 60%) | > 2100 nM | > 2100 nM | F (F represents a maximal response of > 60%) | – | – | – | –
CN1CCN(c2nc(Cl)ncc2F)C(c2cccc(C(F)(F)F)c2)C1 (racemic) [Compound 282] | F (F represents a maximal response of > 60%) | 700 to 2100 nM | 700 to 2100 nM | D (D represents a maximal response of < 40%) | – | – | – | –
Cc1cccc(C2CCCCN2c2nc(Cl)ncc2F)n1 (stereo not shown) [compound 414] | D (D represents a maximal response of < 40%) | < 700 nM | – | D (D represents a maximal response of < 40%) | – | < 700 nM | – | –
Fc1cnc(Cl)nc1N1CCCCC1c1ccc(Cl)c(C(F)(F)F)c1 (stereo not shown) [compound 128] | F (F represents a maximal response of > 60%) | < 700 nM | – | E (E represents a maximal response of 40-60%) | – | 700 to 2100 nM | – | –
FC(F)(F)c1cccc(C2CCCCN2Cc2ccnc(Cl)c2)n1 (stereo not shown) [compound 166] | F (F represents a maximal response of > 60%) | > 2100 nM | – | E (E represents a maximal response of 40-60%) | – | > 2100 nM | – | –
